Test results: patent publication US20220009918A1, “Chemical Compounds” (GlaxoSmithKline Intellectual Property Development Limited, priority 2018, published 2022)

These compounds were tested against T1, human H-PGDS (Homo sapiens, UniProt O60760) (assay: H-PGDS RapidFire high throughput mass spectrometry assay). Conditions: inhibition of conversion of PGH2 to PGD2 by H-PGDS; mean pIC50; read-out: Potency Range (mean pIC50) (converted).
T1 construct: Full length human H-PGDS cDNA (Invitrogen Ultimate ORF IOH13026) was amplified by PCR; 6-His (N); TEV protease cleavage site (N); made in house; host or cells: E. coli BL21 (DE3*) for H-PGDS; Sf9 insect cells (baculovirus) for COX-2
Assay type: biochemical
Protocol: H-PGDS RapidFire™ High Throughput Mass Spectrometry Assay
The H-PGDS RapidFire™ mass spectrometric assay monitors conversion of prostaglandin H2 (PGH2) to prostaglandin D2 (PGD2) by haematopoietic prostaglandin D synthase (H-PGDS). In the assay format described here, the substrate (PGH2) is formed in situ by the action of cyclooxygenase-2 on arachidonic acid. This first step is set up to be fast, and generates a burst of PGH2 at ˜10 μM. The PGH2 is then further converted to PGD2 by the H-PGDS enzyme. […] Plates are then read on the RapidFire™ high throughput solid phase extraction system (Agilent) which incorporates a solid phase extraction step coupled to a triple quadrupole mass spectrometer (AB SCIEX). Relative levels of PGD2 and PGF2α, which acts as a surrogate for substrate, are measured and a percent conversion calculated. Inhibitors are characterised as compounds which lower the conversion of PGH2 to PGD2.
Full length human H-PGDS cDNA (Invitrogen Ultimate ORF IOH13026) was amplified by PCR with the addition of a 5′ 6-His tag and TEV protease cleavage site. The PCR product was digested with NdeI and XhoI and ligated into pET22b+ (Merck Novagen®). Expression was carried out in E. coli strain BL21 (DE3*) using auto-induction Overnight Express™ Instant TB medium (Merck Novagen®) supplemented with 1% glycerol. The culture was first grown at 37° C. and the temperature was reduced to 25° C. when OD600 reached 2.0. Cells were harvested by centrifugation after a further 18 hours. 10 g of E. coli cell pellet was suspended to a total volume of 80 mL in lysis buffer (20 mM Tris-Cl pH 7.5, 300 mM NaCl, 20 mM imidazole, 5 mM p-mercaptoethanol, 10% glycerol). 1 mg/mL protease inhibitors (Protease Inhibitor Cocktail Set III, Merck Calbiochem®) and 1 mg/mL lysozyme were added to the cell suspension. The suspension was then sonicated for 5 min (UltraSonic Processor VCX 750, Cole-Parmer Instrument Co.) with a micro probe (50% amplitude, 10 sec on/off) and then centrifuged at 100,000 g for 90 minutes (at 4° C.). The supernatant was loaded onto a Ni-NTA HiTrap column (5 mL, GE Healthcare, pre-equilibrated in lysis buffer). The column was washed with 10 column volumes of lysis buffer and eluted with lysis buffer containing 500 mM imidazole. The pooled protein peak fractions were concentrated using a 10 kDa centrifugal filter at 3500 g and 4° C. (Amicon Ultra-15 centrifugal filter unit with Ultracel-10 membrane from Millipore). Further purification of the concentrated protein was carried out using gel filtration chromatography on a HiLoad 26/600 Superdex 75 preparative grade column (GE Healthcare Life Sciences) using 50 mM Tris pH 7.5, 50 mM NaCl, 1 mM dithiothreitol, 1 mM MgCl2. Fractions containing the protein were pooled, concentrated as described above, and stored at −80° C.
The full length human COX-2 gene (accession number L15326) was amplified by PCR to generate an EcoRI—HindIII fragment containing an in-frame FLAG tag. This was subcloned into pFastBac 1 (Invitrogen). The COX-2 FLAG plasmid was recombined into the baculovirus genome according to the BAC-to-BAC protocol described by Invitrogen. Transfection into Spodoptera frugiperda (Sf9) insect cells was performed using Cellfectin (Invitrogen), according to the manufacturer's protocol. Super Sf9 cells were cultured in EX420 media (SAFC Biosciences) to a density of approximately 1.5×10^6 cells/mL within a wave bioreactor. Recombinant virus was added at a Multiplicity of Infection (MOI) of 5 and the culture was allowed to continue for 3 days. Cells were harvested using a continuous feed centrifuge run at 2500 g at a rate of approximately 2 L/min with cooling. The resultant cell slurry was re-centrifuged in pots (2500 g, 20 min, 4° C.) and the cell paste was stored at −80° C. […]

T1 sequence (O60760 whole entry): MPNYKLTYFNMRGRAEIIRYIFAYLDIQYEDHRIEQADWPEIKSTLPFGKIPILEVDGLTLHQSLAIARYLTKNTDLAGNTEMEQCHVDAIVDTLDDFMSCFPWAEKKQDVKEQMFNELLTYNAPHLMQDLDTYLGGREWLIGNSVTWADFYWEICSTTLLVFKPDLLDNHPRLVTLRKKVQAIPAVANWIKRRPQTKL

SMILES	IC50 [nM]
O=C(N[C@H]1CCNC1=O)c1cnc(-c2cc(Cl)cc(Cl)c2)s1 [Example 9, (S)-2-(3,5-Dichlorophenyl)-N-(2-oxopyrrolidin-3-yl)thiazole-5-carboxamide]	1.02 to 10
C[C@@]1(NC(=O)c2cnc(-c3cc(F)cc(Cl)c3)s2)CCNC1=O [Example 73, (R)-2-(3-Chloro-5-fluorophenyl)-N-(3-methyl-2-oxopyrrolidin-3-yl)thiazole-5-carboxamide]	102 to 1000
O=C(N[C@@H]1C(=O)N[C@@H]2CCC[C@H]12)c1cnc(-c2cc(F)cc(Cl)c2)s1 [Example 60, 2-(3-Chloro-5-fluorophenyl)-N-((3S,3aS,6aR)-2-oxooctahydrocyclopenta[b]pyrrol-3-yl)thiazole-5-carboxamide]	10.2 to 100
O=C(N[C@H]1C(=O)N[C@@H]2COC[C@@H]21)c1cnc(-c2cc(F)cc(Cl)c2)s1 [Example 54, 2-(3-Chloro-5-fluorophenyl)-N-((3R,3aS,6aS)-2-oxohexahydro-1H-furo[3,4-b]pyrrol-3-yl)thiazole-5-carboxamide]	10.2 to 100
Cc1nc(-c2cccc(Cl)c2)sc1C(=O)N[C@H]1CCNC1=O [Example 30, (S)-2-(3-Chlorophenyl)-4-methyl-N-(2-oxopyrrolidin-3-yl)thiazole-5-carboxamide]	10.2 to 100
CC1(C)CNC(=O)[C@H]1NC(=O)c1cnc(-c2cc(F)cc(Cl)c2)s1 [Example 19, (S)-2-(3-Chloro-5-fluorophenyl)-N-(4,4-dimethyl-2-oxopyrrolidin-3-yl)thiazole-5-carboxamide]	10.2 to 100
Cc1ccnc(-c2ncc(C(=O)N[C@H]3CCNC3=O)s2)n1 [Example 42, (S)-2-(4-Methylpyrimidin-2-yl)-N-(2-oxopyrrolidin-3-yl)thiazole-5-carboxamide]	102 to 1000
O=C(N[C@@H]1CC2(CC2)NC1=O)c1cnc(-c2cc(F)cc(Cl)c2)s1 [Example 22, (R)-2-(3-Chloro-5-fluorophenyl)-N-(5-oxo-4-azaspiro[2.4]heptan-6-yl)thiazole-5-carboxamide]	102 to 1000
O=C(N[C@H]1CCNC1=O)c1cnc(-c2ccccn2)s1 [Example 39, (S)-N-(2-Oxopyrrolidin-3-yl)-2-(pyridin-2-yl)thiazole-5-carboxamide]	102 to 1000
C[C@@H]1C[C@@H](NC(=O)c2cnc(-c3cc(F)cc(Cl)c3)s2)C(=O)N1 [Example 61, 2-(3-Chloro-5-fluorophenyl)-N-((3R,5R)-5-methyl-2-oxopyrrolidin-3-yl)thiazole-5-carboxamide]	102 to 1000
O=C(N[C@H]1CC2(CC2)NC1=O)c1cnc(-c2cc(F)cc(Cl)c2)s1 [Example 21, (S)-2-(3-Chloro-5-fluorophenyl)-N-(5-oxo-4-azaspiro[2.4]heptan-6-yl)thiazole-5-carboxamide]	1.02 to 10
CC1(C)C[C@@H](NC(=O)c2cnc(-c3cc(F)cc(Cl)c3)s2)C(=O)N1 (single isomer, unassigned) [Example 15]	102 to 1000
CC1(C)C[C@@H](NC(=O)c2cnc(-c3cc(F)cc(Cl)c3)s2)C(=S)N1 [Example 84, (R)-2-(3-Chloro-5-fluorophenyl)-N-(5,5-dimethyl-2-thioxopyrrolidin-3-yl)thiazole-5-carboxamide]	102 to 1000
C[C@H]1CNC(=O)[C@H]1NC(=O)c1cnc(-c2cc(F)cc(Cl)c2)s1 [Example 75, 2-(3-Chloro-5-fluorophenyl)-N-((3S,4S)-4-methyl-2-oxopyrrolidin-3-yl)thiazole-5-carboxamide]	10.2 to 100
O=C(N[C@H]1CCNC1=O)c1cnc(-c2ccncc2)s1 [Example 38, (S)-N-(2-Oxopyrrolidin-3-yl)-2-(pyridin-4-yl)thiazole-5-carboxamide]	1020 to 10000
O=C(N[C@H]1CCNC1=O)c1cnc(-c2cccc(C(F)F)c2)s1 [Example 10, (S)-2-(3-(Difluoromethyl)phenyl)-N-(2-oxopyrrolidin-3-yl)thiazole-5-carboxamide]	10.2 to 100
C[C@H]1[C@H](C)NC(=O)[C@@H]1NC(=O)c1cnc(-c2cc(F)cc(Cl)c2)s1 (racemic) [Example 34, Racemic 2-(3-Chloro-5-fluorophenyl)-N-((3R,4S,5S)-4,5-dimethyl-2-oxopyrrolidin-3-yl)thiazole-5-carboxamide; and 2-(3-Chloro-5-fluorophenyl)-N-((3S,4R,5R)-4,5-dimethyl-2-oxopyrrolidin-3-yl)thiazole-5-carboxamide]	10.2 to 100
Cc1ccc(-c2ncc(C(=O)N[C@H]3CCNC3=O)s2)cc1 [Example 44, (S)-N-(2-Oxopyrrolidin-3-yl)-2-(p-tolyl)thiazole-5-carboxamide]	1020 to 10000
C[C@@H]1CNC(=O)[C@H]1NC(=O)c1cnc(-c2cc(F)cc(C(F)F)c2)s1 [Example 13, 2-(3-(Difluoromethyl)-5-fluorophenyl)-N-((3S,4R)-4-methyl-2-oxopyrrolidin-3-yl)thiazole-5-carboxamide]	1.02 to 10
C[C@@H]1CNC(=O)[C@@H]1NC(=O)c1cnc(-c2cc(F)cc(Cl)c2)s1 [Example 76, 2-(3-Chloro-5-fluorophenyl)-N-((3R,4R)-4-methyl-2-oxopyrrolidin-3-yl)thiazole-5-carboxamide]	1020 to 10000
Cc1ccnc(-c2ncc(C(=O)N[C@H]3CCNC3=O)s2)c1 [Example 47, (S)-2-(4-Methylpyridin-2-yl)-N-(2-oxopyrrolidin-3-yl)thiazole-5-carboxamide]	10.2 to 100
O=C(N[C@H]1C(=O)N[C@@H]2CCC[C@@H]21)c1cnc(-c2cc(F)cc(Cl)c2)s1 (racemic) [Example 49, Racemic 2-(3-Chloro-5-fluorophenyl)-N-((3R,3aS,6aR)-2-oxooctahydrocyclopenta[b]pyrrol-3-yl)thiazole-5-carboxamide; and 2-(3-Chloro-5-fluorophenyl)-N-((3S,3aR,6aS)-2-oxooctahydrocyclopenta[b]pyrrol-3-yl)thiazole-5-carboxamide]	1.02 to 10
CC1(C)CC(NC(=O)c2cnc(-c3cc(F)cc(C(F)F)c3)s2)C(=O)N1 (racemic) [Example 18, Racemic 2-(3-(Difluoromethyl)-5-fluorophenyl)-N-(5,5-dimethyl-2-oxopyrrolidin-3-yl)thiazole-5-carboxamide]	10.2 to 100
Cc1cn(-c2ncc(C(=O)N[C@H]3CCNC3=O)s2)cn1 [Example 32, (S)-2-(4-Methyl-1H-imidazol-1-yl)-N-(2-oxopyrrolidin-3-yl)thiazole-5-carboxamide]	1020 to 10000
O=C(N[C@H]1CCNC1=O)c1cnc(-c2cccc3ccoc23)s1 [Example 1, (S)-2-(Benzofuran-7-yl)-N-(2-oxopyrrolidin-3-yl)thiazole-5-carboxamide]	10.2 to 100
CCC1(CC)CNC(=O)[C@@H]1NC(=O)c1cnc(-c2cc(F)cc(Cl)c2)s1 [Example 24, (R)-2-(3-Chloro-5-fluorophenyl)-N-(4,4-diethyl-2-oxopyrrolidin-3-yl)thiazole-5-carboxamide]	1020 to 10000
C[C@H]1C[C@@H](NC(=O)c2cnc(-c3cc(F)cc(Cl)c3)s2)C(=O)N1 [Example 41, 2-(3-Chloro-5-fluorophenyl)-N-((3R,5S)-5-methyl-2-oxopyrrolidin-3-yl)thiazole-5-carboxamide]	10.2 to 100
O=C(N[C@H]1CCNC1=[Se])c1cnc(-c2cc(F)cc(Cl)c2)s1 [Example 78, (S)-2-(3-chloro-5-fluorophenyl)-N-(2-selenoxopyrrolidin-3-yl)thiazole-5-carboxamide]	1.02 to 10
